Patent US9474703B2, “Antimicrobial compositions containing cationic active ingredients and quaternary sugar derived surfactants” (Ecolab USA Inc., priority 2010, dated 2016)

How the values were obtained:
[1] = test system: Staphylococcus aureus ATCC 6538; assay: Time kill method (ASTM E 2315), S. aureus; type: cell-based; conditions: 0.5% ADBAC Quat
Method: (§1) (1) Determination of Time Kill Activity: • (a) The activity of antimicrobial compositions was measured by the time kill method [ASTM E 2315 Standard Guide for Assessment of Antimicrobial Activity Using a Time Kill Procedure], whereby the survival of challenged organisms exposed to an antimicrobial test composition is […] as a function of time. In this test, a diluted aliquot of the composition is brought into contact with a known population of test bacteria for a specified time period at a specified temperature. The test composition is neutralized at the end of the time period, which arrests the antimicrobial activity of the composition. The percent or, alternatively, log reduction from the original bacteria population is calculated. In general, the time kill method is known to those skilled in the art. In addition, comparative data on the foam profile of representative systems is shown. • (b) The composition can be tested at any concentration from 0.01-100%. The choice of which concentration to use is at the discretion of the investigator, and suitable concentrations are readily determined by those skilled in the art. All testing if performed in triplicate, the results are combined, and the average log reduction is reported. • (c) The choice of contact time period also is at the discretion of the investigator. Any contact time period can be chosen. Typical contact times range from 15 second to 5 minutes, with 30 seconds and 1 minute being typical contact times. The contact temperature also can be any temperature, typically room temperature, or about 25 degrees Celsius. • (d) The microbial suspension, or test inoculum, is prepared by growing a microbial culture on any appropriate solid media (e.g., agar). The microbial population then is washed from the agar with sterile physiological saline and the population of the microbial suspension is adjusted to about 10^8 colony forming units per ml (cfu/ml). • (e) The table below lists the test microbial cultures used in the following tests and includes the name of the bacteria, the ATCC (American Type Culture Collection) identification number, and the abbreviation for the name of the organism used hereafter.
(§2) S. aureus is a Gram positive bacteria, whereas, E. coli is a Gram negative bacteria.
(§3) The log reduction is calculated using the formula: Log reduction=log10(numbers control)−log10(test sample survivors).
(§4) The following table correlates percent reduction in microbial population to log reduction: […]

[2] = test system: Escherichia coli ATCC 112229; assay: Time kill method (ASTM E 2315), E. coli; type: cell-based; conditions: 0.5% ADBAC Quat
Method: as §1, §2, §3, §4

[3] = 30 seconds exposure, 1.95% w/w foam boosting agent (amine oxide), 1.25% Poly Trimoniumhydroxypropyl Cocoglucosides Chloride
[4] = 30 seconds exposure, 3.0% w/w foam boosting agent (amine oxide), 1.25% Poly Trimoniumhydroxypropyl Cocoglucosides Chloride
[5] = 30 seconds exposure, 4.2% w/w foam boosting agent (amine oxide), 1.25% Poly Trimoniumhydroxypropyl Cocoglucosides Chloride
[6] = Table 10, 1.25% w/w quaternized sugar-derived surfactant, 1.95% Alkyl Dimethyl Amine Oxide

| Substance | S. aureus Log Reduction [1, 6] | E. coli Log Reduction [2, 6] | other results |
| --- | --- | --- | --- |
| Alkyl Dimethyl Amine Oxide |  |  | S. aureus Log Reduction [1, 3]: >5.5; S. aureus Log Reduction [1, 4]: >5.5; S. aureus Log Reduction [1, 5]: >5.5; E. coli Log Reduction [2, 3]: >5.5; E. coli Log Reduction [2, 4]: >5.5; E. coli Log Reduction [2, 5]: >5.5 |
| Lauridimonium-hydroxypropyl Cocoglucosides Chloride [Formula L8610] | >5.0 | >5.0 |  |
| Cocoglucosides Hydroxypropyl-trimonium Chloride [TM8610] | >5.0 | >5.0 |  |
| Lauridimonium-hydroxypropyl Laurylglucosides Chloride [Formula L1210] | >5.0 | >5.0 |  |
| Stearyldimonium-hydroxypropyl Laurylglucosides Chloride [Formula S1218] | >5.0 | >5.0 |  |
| Laurylglucosides Hydroxypropyl-trimonium Chloride [TM1212] | >5.0 | >5.0 |  |
